Results on twelve compounds are retold here after patent publication US10641781B2, “Method, composition and device for sampling natriuretic peptides in a biological fluid” (CRIMSON U.S. ASSETS, LLC, priority 2008, dated 2020).

For data set [1] the following is noted: cited from earlier work.
The conditions of data set [2]: after separation of plasma from whole blood; cited from earlier work.
Data set [3] in a line: Time course of BNP1-32 hydrolysis in plasma without inhibitor, by mass spectrometric immunoassay (MSIA). Format: in vitro ADME, human. As to conditions: heparin plasma, no inhibitor, room temperature, BNP1-32 at 100 ng/mL, four hours after addition. From the text:
(§1) In order to observe, characterize and identify the BNP hydrolysis products a Mass Spectrometric Immunoassay (MSIA) was developed and employed in the analysis of BNP. This technique is broadly described in, e.g., Nelson et al. (1995) Anal. Chem. 67, 1153-1158; Tubbs et al. (2001) Anal. Biochem. 289, 26-35; Kiernan et al. (2002) Anal. Biochem. 301, 49-56; Niederkofler et al. (2003) J. Lipid Res. 44, 630-639 and U.S. Pat. Nos. 6,783,672; 6,974,704; 7,083,723; 7,083,724; 7,087,163; 7,087,164; 7,087,165; and 7,087,163. The basic methodology is described in the context of BNP although the technique is also applicable to ANP and other peptides of interest.
(§2) Briefly, MSIA entails the use of affinity capture, to extract BNP and many of its' hydrolysis products for mass spectrometric detection, to observe and identify products of BNP hydrolysis. Therefore, synthesized BNP1-32 was added to room temperature plasma (from blood collected in heparinized blood collection tubes). At a several times post-spiking BNP1-32 into the plasma, aliquots of the spiked plasma were analyzed to monitor the progress of BNP1-32 hydrolysis. The results of performing a series of analyses on aliquots removed and analyzed every hour for up to six hours post-addition of BNP1-32 at 100 ng/mL are shown in FIG. 2. […] The last two species are indistinguishable in the chart due to similar amino acid compositions. […]

The next data set relates to BNP1-32 hydrolysis. Nature of the data set: BNP1-32 hydrolysis in heparin plasma treated with protease inhibitors, room temperature, MSIA. Format: biochemical, human. The note with it: for effect on BNP hydrolysis: BNP1-32 10 ng/mL.
From the text: as §1, §2
Next, the individual protease inhibitors, including some of those included in protease inhibitor cocktail set III (EMD) were tested using the protocols described supra. Briefly, aliquots of heparin plasma were treated with each one of the protease inhibitors. To each aliquot of plasma, BNP1-32 was added at 10 ng/mL and incubated at room temperature. Aliquots were sequentially removed and analyzed for BNP hydrolysis.
Briefly, aliquots of heparin plasma were treated with each one of these protease inhibitors. To each aliquot of plasma, BNP1-32 was added at 10 ng/mL and incubated at room temperature. Aliquots were sequentially removed and analyzed for BNP hydrolysis.
Further testing added to the list of inexpensive protease inhibitors effective in combination with AEB SF in avoiding adducts starting with benzamidine hydrochloride (Calbiochem catalog no. 199001). […] Briefly, aliquots of heparin plasma were treated with the protease inhibitor. To each aliquot of plasma, BNP1-32 was added at 10 ng/mL and incubated at room temperature. Aliquots were sequentially removed and analyzed for BNP hydrolysis.
In addition, PPACK I dihydrochloride (Calbiochem catalog no. 520222) and PPACK II trifluoroacetate salt (Calbiochem catalog no. 520219) were also tested at a concentration of 1 mM each. […]

Data set [4] has as its system BNP hydrolysis. Nature of the data set: BNP stability in plasma stored at -70 C, MSIA. Format: biochemical, human. The note with it: tested on day of collection and six months later. How it is done:
The limited proteolysis prior to the addition of the protease inhibitors is preserved in the sample. The sampled plasma was assayed for the presence of BNP fragments on the day of collection and then six month later. […] This may reflect the presence of metalloproteinases in heparinized blood.
To examine this, BNP peptides corresponding to those previously identified as products resulting from the hydrolysis of BNP1-32 were synthesized and added to EDTA plasma treated with 10 mM AEBSF and 20 mM Benzamidine. An aliquot of the sample was analyzed for the added BNP peptides soon after the addition of the peptides to the plasma, while the rest of the plasma was stored at −70° C. for 7 weeks. After 7 weeks of storage the plasma was removed from the freezer, thawed and analyzed for the existence of the added BNP peptides.

Data set [5] relates to BNP hydrolysis. Nature of the data set: BNP hydrolysis in EDTA versus heparin plasma at room temperature, MSIA. The note with it: plasma spiked with BNP1-32, room temperature, aliquots at 1 hour and 2 hours. Format: biochemical, human. How it is done: Blood from a single individual was collected in both heparin and EDTA blood collection tubes. The collected blood was centrifuged to remove cellular components and the supernatant (plasma) was collected. To the EDTA and heparin plasma, BNP1-32 was added and incubated at room temperature with aliquots removed for analysis of BNP hydrolysis at 1 hour and 2 hours.

For data set [6] the following is noted: weak basic conditions (pH 8-9); cited from earlier work.
Another data set has as its system proteolysis of BNP. The note with it: sampled blood or plasma; cited from earlier work.

Entries after “also recorded” stand apart in the source; their conditions may differ. Structures can show the parent of a compound that is named as a salt. Where a SMILES comes first, the peptide text is derived from it. [ ]: non-standard residue; d: D form. The star is where a group is joined. Sta = CC(C)C[C@H](N)[C@@H](O)CC(=O)O; Isovaleryl = CC(C)CC(=O)*; CH2Cl = ClC* Where only a bound is given, the exact number is not on record here.

As to “BNP1-32: 32-amino acid B-type natriuretic peptide; synthesized BNP1-32 spiked into plasma”, the “half-life (t1/2) in vivo” value in data set [1] was “approximately 20 minutes”. Besides, in data set [2], the “time within which BNP is proteolyzed in vitro” value is not above 24 h. Also, the “hydrolysis of BNP1-32 in plasma” value in data set [3] is reported as “all of the BNP1-32 appears to have been processed into smaller peptides”. In the case of `NC(N)=NCCC[C@H](NC(=O)[C@H](Cc1ccccc1)NC(=O)[C@H](N)Cc1ccccc1)C(=O)CCl` [PPACK II] (H-[dF]-Phe-Arg-CH2Cl), the “effect on BNP hydrolysis” value in the data set on BNP1-32 hydrolysis (inhibitor at 1 mM) is “slowed the rate of BNP hydrolysis; also recorded: reduced BNP proteolysis”. On the same count and under the same terms, the result for `CC(C)C[C@H](NC(=O)[C@H]1O[C@@H]1C(=O)O)C(=O)NCCCCN=C(N)N` [E64] reads “little or no effect on BNP proteolysis; also recorded: did not appreciably prevent the hydrolysis of BNP”. Turning to `O=C([O-])CN(CCN(CC(=O)[O-])CC(=O)O)CC(=O)[O-].[Na+].[Na+].[Na+]` [EDTA, ethylenediamine tetracetic acid], the “BNP hydrolysis in EDTA plasma without protease inhibitors” value with BNP hydrolysis [4] is “the hydrolysis stops at the formation of the BNP3-32; also recorded: proteolysis of BNP1-32 leading to the formation of BNP3-32”. For the same compound, the “effect of anti-coagulant on BNP hydrolysis” value in the data set with BNP hydrolysis [5] is on record as “BNP hydrolysis stops with the formation of the BNP3-32; also recorded: reduce BNP hydrolysis”. As for `N=C(N)c1ccccc1` [Benzamidine hydrochloride, Benzamidine], the “effectiveness in slowing BNP hydrolysis relative to other inhibitors” value with BNP1-32 hydrolysis (1 mM) was “better than PPACK I and PPACK II, but it was not as effective as AEBSF”. Further, the “effect on BNP hydrolysis” value with BNP1-32 hydrolysis (inhibitor at 1 mM) was “slowed the hydrolysis of BNP”; in the data set on BNP1-32 hydrolysis (inhibitor at 1 mM, listed as Benzamidine), “reduced BNP proteolysis”. As for `Cl.NCCc1ccc(S(=O)(=O)F)cc1` [AEBSF, 4-(2-Aminoethyl) benzenesulfonyl fluoride hydrochloride], the “hydrolysis of the inhibitor” value in data set [6] is given as “slow hydrolysis”. Also, the “effect on BNP hydrolysis” value in the data set on BNP1-32 hydrolysis (inhibitor at 1 mM, hydrochloride) was “slowed the hydrolysis of BNP; also recorded: reduced BNP proteolysis”; with BNP1-32 hydrolysis (inhibitor at 2.5 mM, hydrochloride), “almost completely inhibited the hydrolysis of BNP; also recorded: reduced BNP proteolysis”; with BNP1-32 hydrolysis (inhibitor at 5 mM, hydrochloride), “almost completely inhibited the hydrolysis of BNP; also recorded: reduced BNP proteolysis”. Turning to `CC(C)CC(=O)N[C@H](C(=O)N[C@H](C(=O)N[C@@H](CC(C)C)[C@@H](O)CC(=O)N[C@@H](C)C(=O)N[C@@H](CC(C)C)[C@@H](O)CC(=O)O)C(C)C)C(C)C` [Pepstatin A] (Isovaleryl-VV[Sta]A[Sta]-OH), the “effect on BNP hydrolysis” value in the data set on BNP1-32 hydrolysis (inhibitor at 0.1 mM) is “little or no effect on BNP proteolysis; also recorded: did not appreciably prevent the hydrolysis of BNP”. As to Heparin, the “effect of anti-coagulant on BNP hydrolysis” value is reported as “relatively ineffective in preventing BNP proteolysis” with BNP hydrolysis [5] and “progress towards the production of BNP hydrolysis products smaller than the BNP3-32” in the data set on BNP hydrolysis [5] (listed as heparin).

In the case of `Cl.Cl.NC(N)=NCCC[C@H](NC(=O)[C@@H]1CCCN1C(=O)[C@H](N)Cc1ccccc1)C(=O)CCl` [PPACK I], the “effect on BNP hydrolysis” value in the data set with BNP1-32 hydrolysis (inhibitor at 1 mM) is reported as “slowed the rate of BNP hydrolysis; also recorded: reduced BNP proteolysis”. As for `NC(N)=NCCC[C@H](NC(=O)[C@@H]1CCCN1C(=O)[C@H](N)Cc1ccccc1)C(=O)CCl` [PPACK], the “effectiveness in arresting proteolysis of BNP” value in the data set on proteolysis of BNP was “most effective in arresting proteolysis of BNP”.

Regarding `CC(C)C[C@H](NC(=O)[C@@H](O)[C@H](N)Cc1ccccc1)C(=O)O` [Bestatin], the “effect on BNP hydrolysis” value in the data set on BNP1-32 hydrolysis (inhibitor at 0.5 mM) was “little or no effect on BNP proteolysis; also recorded: did not appreciably prevent the hydrolysis of BNP”. Take `CC(=O)N[C@@H](CC(C)C)C(=O)N[C@@H](CC(C)C)C(=O)N[C@H](C=O)CCCNC(=N)N` [Leupeptin]: the “effect on BNP hydrolysis” value in the data set with BNP1-32 hydrolysis (inhibitor at 0.1 mM) is “slowed the hydrolysis of BNP”; in the data set with BNP1-32 hydrolysis (inhibitor at 1 mM), “slow BNP proteolysis”.
